Reference: ChEMBL document CHEMBL5154929, “Optimization of the Natural Product Calothrixin A to Discover Novel Dual Topoisomerase I and II Inhibitors with Improved Anticancer Activity” (J Med Chem, 2022)
pIC50: −log10 of the molar value.

Tests used:
SH-SY5Y = assay: Cytotoxicity against human SH-SY5Y cells expressing low level of topoisomerase I/II measured after 72 hrs by MTT assay; format: functional, cell-based
MDA-MB-231 = assay: Cytotoxicity against human MDA-MB-231 cells expressing high level of topoisomerase I/II measured after 72 hrs by MTT assay; format: functional, cell-based; settings: MDA-MB-231, 72 h
HCT-116 = assay: Cytotoxicity against human HCT-116 cells expressing high level of topoisomerase I/II measured after 72 hrs by MTT assay; format: functional, cell-based; settings: HCT-116, 72 h
MCF7 = assay: Cytotoxicity against human MCF7 cells expressing high level of topoisomerase I/II measured after 72 hrs by MTT assay; format: functional, cell-based; settings: MCF7, 72 h
A-375 = assay: Cytotoxicity against human A-375 cells expressing high level of topoisomerase I/II measured after 72 hrs by MTT assay; format: functional, cell-based; settings: A-375, 72 h
A549 = assay: Cytotoxicity against human A549 cells expressing high level of topoisomerase I/II measured after 72 hrs by MTT assay; format: functional, cell-based; settings: A549, 72 h
[1] = Cytotoxicity against human L02 cells measured after 72 hrs by MTT assay; format: toxicity, cell-based
[2] = Cytotoxicity against human HEK293T cells measured after 72 hrs by MTT assay; format: toxicity, cell-based, HEK-293T

Compound	pIC50 (SH-SY5Y)	pIC50 (MDA-MB-231)	pIC50 (HCT-116)	pIC50 (MCF7)	pIC50 (A-375)	pIC50 (A549)	IC50 at 72 h [1]	IC50 at 72 h [2]
CC1(C)OCC(Cn2cc(Cn3c4c(c5ccccc53)C(=O)c3c[n+]([O-])c5ccccc5c3C4=O)nn2)O1 (configuration not stated)	6.64	6.64	7.15	6.54	6.48	7.10	120 nM	5510 nM
O=C1c2c[n+]([O-])c3ccccc3c2C(=O)c2c1c1ccccc1n2CCN1CCOCC1	5.69	5.69	5.89	5.76	6.09	6.25	1730 nM	
O=C1c2c[n+]([O-])c3ccccc3c2C(=O)c2c1c1ccccc1n2CCCCCN1CCOCC1	6.52	6.48	6.52	6.59	6.64	6.89	330 nM	150 nM
CN(C)CCCCCn1c2c(c3ccccc31)C(=O)c1c[n+]([O-])c3ccccc3c1C2=O	6.43	6.62	6.33	6.70	6.25	6.68	240 nM	70 nM
CC(=O)OC[C@H]1O[C@H](n2cc(Cn3c4c(c5ccccc53)C(=O)c3c[n+]([O-])c5ccccc5c3C4=O)nn2)[C@H](OC(C)=O)[C@@H]1OC(C)=O	6.29	6.60	6.82	6.17	6.16	6.37	90 nM	210 nM
O=C1c2c[n+]([O-])c3ccccc3c2C(=O)c2c1c1ccccc1n2Cc1cn(C[C@@H](O)CO)nn1	< 6.30	6.17	6.72	6.22	6.85	6.41	490 nM	2030 nM
O=C1c2c[n+]([O-])c3ccccc3c2C(=O)c2c1c1ccccc1n2CCCCN1CCN(CCO)CC1	6.35	6.13	6.48	6.42	6.33	6.70	880 nM	
CC1(C)OC[C@H](Cn2cc(Cn3c4c(c5ccccc53)C(=O)c3c[n+]([O-])c5ccccc5c3C4=O)nn2)O1	6.09	6.28	6.89	6.28	6.74	6.47	470 nM	100 nM
CN1CCN(CCCn2c3c(c4ccccc42)C(=O)c2c[n+]([O-])c4ccccc4c2C3=O)CC1	6.25	6.41	6.25	6.66	6.33	6.85	230 nM	170 nM
CN1CCN(CCCCCCn2c3c(c4ccccc42)C(=O)c2c[n+]([O-])c4ccccc4c2C3=O)CC1	6.04	5.62	5.54	6.40	6.20	6.48	3800 nM	5800 nM
O=C1c2c[n+]([O-])c3ccccc3c2C(=O)c2c1c1ccccc1n2Cc1cn(CC(O)CO)nn1 (configuration not stated)	< 6.00	5.89	6.60	5.95	6.36	6.06	1070 nM	760 nM
CC(=O)OC[C@@H]1OC(C)(C)O[C@H]1Cn1cc(Cn2c3c(c4ccccc42)C(=O)c2c[n+]([O-])c4ccccc4c2C3=O)nn1	< 6.00	< 6.00	6.24	< 6.00	6.37	< 6.00	1060 nM	10200 nM
O=C1c2c[n+]([O-])c3ccccc3c2C(=O)c2c1c1ccccc1n2CCCCn1ccnc1	6.89	6.68	6.62	6.89	6.46	6.77	150 nM	280 nM
CC1(C)O[C@@H](CO)[C@H](Cn2cc(Cn3c4c(c5ccccc53)C(=O)c3c[n+]([O-])c5ccccc5c3C4=O)nn2)O1	< 6.00	6.17	6.89	6.16	6.72	6.43	500 nM	120 nM
CCCN1CCN(CCCCn2c3c(c4ccccc42)C(=O)c2c[n+]([O-])c4ccccc4c2C3=O)CC1	5.40	5.53	6.10	5.89	6.06	6.49	6830 nM	
CCCCN1CCN(CCCCn2c3c(c4ccccc42)C(=O)c2c[n+]([O-])c4ccccc4c2C3=O)CC1	5.21	6.05	5.72	5.16	5.67	6.26	5690 nM	

Compound	pIC50 (SH-SY5Y)	pIC50 (MDA-MB-231)	pIC50 (HCT-116)	pIC50 (MCF7)	pIC50 (A-375)	pIC50 (A549)	IC50 at 72 h [1]	IC50 at 72 h [2]
O=C1c2c[n+]([O-])c3ccccc3c2C(=O)c2c1c1ccccc1n2CCCN1CCC(O)CC1	6.89	6.55	6.72	6.72	6.62	6.46	120 nM	170 nM
O=C1c2c[n+]([O-])c3ccccc3c2C(=O)c2c1c1ccccc1n2Cc1cn([C@H]2O[C@H](CO)[C@@H](O)[C@H]2O)nn1	5.87	5.77	6.15	5.83	6.47	5.57	950 nM	1370 nM
O=C1c2c[n+]([O-])c3ccccc3c2C(=O)c2c1c1ccccc1n2Cc1cn(C[C@H](O)CO)nn1	< 6.00	5.88	6.40	< 6.00	6.46	5.99	1130 nM	8880 nM
CC(=O)OC[C@H]1O[C@@H](n2cc(Cn3c4c(c5ccccc53)C(=O)c3c[n+]([O-])c5ccccc5c3C4=O)nn2)[C@H](OC(C)=O)[C@@H](OC(C)=O)[C@@H]1OC(C)=O	6.19	6.40	6.12	6.48	6.25	6.54	270 nM	2430 nM
O=C1c2c[n+]([O-])c3ccccc3c2C(=O)c2c1c1ccccc1n2CCCN1CCOCC1	6.23	6.26	6.39	6.35	6.48	6.40	550 nM	170 nM
O=C1c2c[n+]([O-])c3ccccc3c2C(=O)c2c1c1ccccc1n2CCN1CCCC1	6.28	6.20	6.57	6.49	6.37	6.39	930 nM	
CN(C)CCn1c2c(c3ccccc31)C(=O)c1c[n+]([O-])c3ccccc3c1C2=O	6.77	6.80	6.96	6.70	6.85	6.70	750 nM	
CC(=O)OC[C@H]1O[C@H](n2cc(Cn3c4c(c5ccccc53)C(=O)c3c[n+]([O-])c5ccccc5c3C4=O)nn2)C[C@@H]1OC(C)=O	< 6.00	5.92	6.42	5.89	6.26	5.94	2780 nM	120 nM
O=C1c2c[n+]([O-])c3ccccc3c2C(=O)c2c1c1ccccc1n2CCCCN1CCOCC1	6.77	6.62	7.05	6.89	6.77	7.05	510 nM	
CN(C)CCCn1c2c(c3ccccc31)C(=O)c1c[n+]([O-])c3ccccc3c1C2=O	6.48	6.31	6.46	6.62	6.39	6.51	490 nM	130 nM
CCOC(=O)[C@@H]1OC(C)(C)O[C@H]1Cn1cc(Cn2c3c(c4ccccc42)C(=O)c2c[n+]([O-])c4ccccc4c2C3=O)nn1	< 6.00	5.98	6.11	< 6.00	6.24	< 6.00	840 nM	130 nM
CC1(C)OC[C@@H](Cn2cc(Cn3c4c(c5ccccc53)C(=O)c3c[n+]([O-])c5ccccc5c3C4=O)nn2)O1	< 6.00	< 6.00	6.47	< 6.00	6.35	5.33	2900 nM	6020 nM
O=C1c2c[n+]([O-])c3ccccc3c2C(=O)c2c1c1ccccc1n2Cc1cn([C@@H]2O[C@H](CO)[C@@H](O)[C@H](O)[C@H]2O)nn1	6.06	6.19	6.89	6.23	6.64	6.25	420 nM	940 nM
CC[C@@]1(O)C(=O)OCc2c1cc1n(c2=O)Cc2cc3ccccc3nc2-1 [CAMPTOTHECIN]	6.21	6.31	6.22	6.46	6.18	6.43	140 nM	690 nM
O=C1c2c[n+]([O-])c3ccccc3c2C(=O)c2c1c1ccccc1n2CCCCN1CCCCC1	6.64	6.21	6.70	6.82	6.72	6.82	610 nM	
O=C1c2c[n+]([O-])c3ccccc3c2C(=O)c2c1c1ccccc1n2CCN1CCCCC1	5.73	5.98	6.11	6.21	6.74	5.97	1050 nM	
